The record followed here is publication PMC10648944, “Fumagillin inhibits growth of the enteric protozoan parasite Entamoeba histolytica by covalently binding to and selectively inhibiting methionine aminopeptidase 2” (Antimicrobial Agents and Chemotherapy, 2023).

Data set [1] addresses T1, E. histolytica methionine aminopeptidase 2 (EhMetAP2) (Entamoeba histolytica, UniProt C4LWW4).
T1 construct: gene EHI_126880; full-length, N-terminal GST fusion (GST-EhMetAP2) expressed in S. cerevisiae
T1 sequence (C4LWW4 1-413): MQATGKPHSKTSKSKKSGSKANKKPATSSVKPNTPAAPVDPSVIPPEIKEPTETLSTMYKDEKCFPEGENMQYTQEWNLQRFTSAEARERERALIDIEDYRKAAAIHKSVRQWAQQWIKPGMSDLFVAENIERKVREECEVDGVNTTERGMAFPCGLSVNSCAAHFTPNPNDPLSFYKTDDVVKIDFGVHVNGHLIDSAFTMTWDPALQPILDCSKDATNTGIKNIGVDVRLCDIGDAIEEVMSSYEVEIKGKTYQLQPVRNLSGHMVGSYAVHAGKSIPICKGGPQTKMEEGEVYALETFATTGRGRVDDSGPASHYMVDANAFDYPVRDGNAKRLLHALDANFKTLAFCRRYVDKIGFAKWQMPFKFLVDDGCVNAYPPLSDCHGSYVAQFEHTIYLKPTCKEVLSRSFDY
Kind of data set: fluorogenic Met-MCA aminopeptidase assay with purified GST-EhMetAP2, double-reciprocal plot. In kind it is biochemical.

Substrate in data set [2]: CSCC[C@H](N)C(=O)Nc1ccc2c(C)cc(=O)oc2c1
Kind of data set: fluorometric hydrolysis by purified GST-EhMetAP2; Km by end point assay. In kind it is biochemical, Entamoeba histolytica. The following applies: Mn2+ / Mg2+ ([…] MnCl2, […] MgCl2 in the assay).

Take `CO[C@@H]1[C@H](OC(=O)/C=C/C=C/C=C/C=C/C(=O)O)CC[C@]2(CO2)[C@H]1[C@@]1(C)O[C@@H]1CC=C(C)C` [compound 1, fumagillin]: the Ki in data set [1] was determined as 60 ± 33 nM.

B1: E. histolytica methionine aminopeptidase 2 (EhMetAP2) (Entamoeba histolytica HM-1:IMSS) (protein)
chain: MQATGKPHSKTSKSKKSGSKANKKPATSSVKPNTPAAPVDPSVIPPEIKEPTETLSTMYKDEKCFPEGENMQYTQEWNLQRFTSAEARERERALIDIEDYRKAAAIHKSVRQWAQQWIKPGMSDLFVAENIERKVREECEVDGVNTTERGMAFPCGLSVNSCAAHFTPNPNDPLSFYKTDDVVKIDFGVHVNGHLIDSAFTMTWDPALQPILDCSKDATNTGIKNIGVDVRLCDIGDAIEEVMSSYEVEIKGKTYQLQPVRNLSGHMVGSYAVHAGKSIPICKGGPQTKMEEGEVYALETFATTGRGRVDDSGPASHYMVDANAFDYPVRDGNAKRLLHALDANFKTLAFCRRYVDKIGFAKWQMPFKFLVDDGCVNAYPPLSDCHGSYVAQFEHTIYLKPTCKEVLSRSFDY
notes: full-length, N-terminal GST fusion (GST-EhMetAP2) expressed in S. cerevisiae
On to B1, for which the Km in data set [2] was determined as 770 ± 40 µM.

The Ki is the dissociation constant of the complex between target and ligand, obtained from inhibition or displacement. Lower therefore signals higher affinity. As usually defined, the Km is the substrate concentration at which the rate is half of its maximum.
